# Laboratory results as given in ChEMBL document CHEMBL5634083, “Targeting polyketide synthase 13 for the treatment of tuberculosis” (Eur J Med Chem, 2023).
# Columns and labels:
# [1] = test system: Mycobacterium tuberculosis; test: Antimycobacterial activity against Mycobacterium tuberculosis H37Rv assessed as microbial growth inhibition measured after 3 days by alamar blue assay; assay type: functional; conditions: 72 h, time 3 day
# [2] = Cytotoxicity against African green monkey Vero cells assessed as reduction in cell viability; assay type: toxicity, cell-based; conditions: African green monkey (Chlorocebus sabaeus)
# HepG2 = test: Cytotoxicity against human HepG2 cells assessed as reduction in cell growth; assay type: functional, cell-based
# [3] = test system: Mycobacterium tuberculosis; test: Antimycobacterial activity against Mycobacterium tuberculosis H37Rv assessed as reduction in bacterial growth incubated for 7 days by resazurin based assay; assay type: functional; conditions: 168 h, time 7 day
# [4] = test system: Mycobacterium tuberculosis; test: Antimycobacterial activity against Mycobacterium tuberculosis H37Rv assessed as reduction in bacterial growth; assay type: functional
# [5] = Microsomal stability in human liver microsomes assessed as half life; assay type: ADME, Microsome
# [6] = test system: Mycobacterium tuberculosis; test: Antimycobacterial activity against Mycobacterium tuberculosis H37Rv assessed as reduction in microbial growth after 7 days by alamar blue assay; assay type: functional; conditions: 168 h, time 7 day
# [7] = Metabolic stability in mouse liver microsomes assessed as intrinsic clearance; assay type: ADME, Microsome
# [8] = test system: Mycobacterium tuberculosis; test: Antimycobacterial activity against Mycobacterium tuberculosis H37Rv assessed as reduction in bacterial cell growth by resazurin reduction method; assay type: functional
# [9] = test system: Mycobacterium tuberculosis; test: Antimycobacterial activity against Mycobacterium tuberculosis H37Rv assessed as reduction in bacterial growth measured after 16 to 24 hrs by microplate alamar blue assay; assay type: functional; conditions: time 16-24 hrs
# [10] = biological target: Polyketide synthase Pks13 (Mycobacterium tuberculosis (strain ATCC 25618 / H37Rv), UniProt I6X8D2); test: Inhibition of Mycobacterium tuberculosis recombinant Pks13 expressed in Escherichia coli BL21 (DE3) cells using 4-methylumbelliferyl heptanoate as substrate incubated for 3 hrs by […] based analysis
# Chain of Polyketide synthase Pks13 (I6X8D2 whole entry): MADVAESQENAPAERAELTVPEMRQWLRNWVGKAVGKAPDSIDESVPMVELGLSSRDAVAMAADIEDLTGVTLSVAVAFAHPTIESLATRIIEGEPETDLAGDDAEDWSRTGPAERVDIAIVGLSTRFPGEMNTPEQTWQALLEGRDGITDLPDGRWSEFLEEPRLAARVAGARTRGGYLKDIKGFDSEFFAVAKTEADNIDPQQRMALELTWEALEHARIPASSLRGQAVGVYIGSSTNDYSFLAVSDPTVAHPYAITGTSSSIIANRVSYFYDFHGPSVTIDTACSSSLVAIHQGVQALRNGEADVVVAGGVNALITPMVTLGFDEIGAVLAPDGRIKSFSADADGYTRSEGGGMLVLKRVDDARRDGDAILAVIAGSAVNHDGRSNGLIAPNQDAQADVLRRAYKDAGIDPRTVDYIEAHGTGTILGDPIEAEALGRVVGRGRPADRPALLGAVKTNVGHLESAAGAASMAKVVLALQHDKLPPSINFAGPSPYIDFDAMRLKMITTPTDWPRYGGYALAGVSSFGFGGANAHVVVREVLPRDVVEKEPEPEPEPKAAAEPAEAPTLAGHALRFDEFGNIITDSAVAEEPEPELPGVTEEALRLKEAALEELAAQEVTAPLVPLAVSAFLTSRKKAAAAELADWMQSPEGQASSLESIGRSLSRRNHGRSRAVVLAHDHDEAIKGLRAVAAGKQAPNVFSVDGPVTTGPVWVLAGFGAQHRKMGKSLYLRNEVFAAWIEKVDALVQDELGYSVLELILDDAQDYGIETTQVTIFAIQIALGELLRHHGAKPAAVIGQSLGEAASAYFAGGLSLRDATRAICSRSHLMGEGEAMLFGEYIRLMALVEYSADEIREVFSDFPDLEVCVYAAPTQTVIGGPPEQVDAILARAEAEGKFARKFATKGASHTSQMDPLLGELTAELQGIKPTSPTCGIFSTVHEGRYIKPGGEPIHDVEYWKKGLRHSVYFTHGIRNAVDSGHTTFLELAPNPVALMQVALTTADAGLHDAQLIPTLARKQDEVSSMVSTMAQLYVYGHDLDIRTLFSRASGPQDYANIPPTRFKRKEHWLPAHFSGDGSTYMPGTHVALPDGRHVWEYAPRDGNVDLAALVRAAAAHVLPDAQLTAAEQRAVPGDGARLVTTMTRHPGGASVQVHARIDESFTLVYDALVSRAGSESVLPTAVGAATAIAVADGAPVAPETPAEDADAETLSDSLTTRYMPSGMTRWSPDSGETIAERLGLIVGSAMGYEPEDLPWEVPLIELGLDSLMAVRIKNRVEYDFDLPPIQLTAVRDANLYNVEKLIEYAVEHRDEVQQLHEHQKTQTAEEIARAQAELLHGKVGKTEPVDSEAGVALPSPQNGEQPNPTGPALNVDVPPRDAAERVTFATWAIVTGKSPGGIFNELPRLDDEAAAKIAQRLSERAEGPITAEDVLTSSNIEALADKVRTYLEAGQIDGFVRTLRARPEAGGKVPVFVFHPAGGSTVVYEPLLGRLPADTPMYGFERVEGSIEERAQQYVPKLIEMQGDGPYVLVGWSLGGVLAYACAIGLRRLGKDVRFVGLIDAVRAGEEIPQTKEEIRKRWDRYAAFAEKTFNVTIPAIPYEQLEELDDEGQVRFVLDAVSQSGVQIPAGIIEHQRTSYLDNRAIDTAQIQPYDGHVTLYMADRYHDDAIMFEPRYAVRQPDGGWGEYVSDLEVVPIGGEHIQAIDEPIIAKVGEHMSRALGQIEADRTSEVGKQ
# [11] = test system: Mycobacterium tuberculosis; test: Antitubercular activity against Mycobacterium tuberculosis H37Rv assessed as reduction in microbial growth measured after 3 weeks by resazurin microplate reader assay; assay type: functional; conditions: 504 h
# [12] = test system: Mycobacterium tuberculosis; test: Antimycobacterial activity against Mycobacterium tuberculosis H37Rv ATCC 27294 assessed as reduction in bacterial growth after 21 days by serial dilution method; assay type: functional; conditions: H37Rv ATCC 27294, 504 h, time 21 day
# [13] = test system: Mycobacterium tuberculosis; test: Antibacterial activity against Mycobacterium tuberculosis H37Rv assessed as inhibition of cell growth; assay type: functional
smiles,measurement,setting,value
C=CCCCCCCC[C@H]1C(=O)O[C@@H]1CCCCCNC(=O)c1ccc(N(C)C)cc1,MIC,[1],1.6 µM
COC(=O)c1c(NC(=O)c2c(F)c(F)c(F)c(F)c2F)sc2c1CCCCC2,IC50,[2],17.5 µM
same,IC50,HepG2,7.3 µM
same,MIC,[3],1 µM
same,MIC,[4],0.5 µM
CCOC(=O)c1c(NC(=O)c2c(F)c(F)c(F)c(F)c2F)sc(C(N)=O)c1C,MIC,[3],0.5 µM
same,MIC,[4],0.5 µM
CCOC(=O)c1c(-c2ccccc2)oc2ccc(O)c(CN3CCC(C)CC3)c12,half-life,[5],18.8 min
CCOC(=O)c1c(NC(=O)c2c(F)c(F)c(F)c(F)c2F)sc2c1CCN(CC)C2,MIC,[6],0.23 µM
CNC(=O)c1c(-c2ccc(O)cc2)oc2ccc(O)c(CN3CCCCC3)c12,CLH,[7],< 0.5 mL/min/g
CNC(=O)c1c(-c2ccccc2)oc2ccc(O)c(CN3CCCCC3)c12,MIC,[8],0.29 µM
O=c1cc(-c2ccccc2O)oc2ccc(O)c(CN3CCC3)c12,MIC,[9],0.45 µg/mL
same,IC50,[10],0.0143 µM
O=C(c1ccccc1)c1cc(Cl)ccc1OCc1nc(-c2ccc(C(F)(F)F)cc2)no1,MIC,[11],8 µg/mL
COc1ccccc1OCCNCC(O)COc1cccc2[nH]c3ccccc3c12 (stereo not drawn) [CARVEDILOL],MIC,[12],32 µg/mL
Cc1ccc(-c2cc(C(F)(F)F)nn2-c2ccc(S(N)(=O)=O)cc2)cc1 [CELECOXIB],MIC,[12],64 µg/mL
CCCCCCCCCCC[C@@H](C[C@@H]1OC(=O)[C@H]1CCCCCC)OC(=O)[C@H](CC(C)C)NC=O [ORLISTAT],MIC,[13],15 µM
CCN(CC)CCCC(C)Nc1c2ccc(Cl)cc2nc2ccc(OC)cc12 (stereo not drawn) [QUINACRINE],MIC,[12],64 µg/mL
